# Test results published in patent US20200009281A1, “ODOR CONTROL AGENT” (priority 2017, published 2020).
# Target: T1, Urease Enzyme from Canavalia ensiformis (Jack bean) (Canavalia ensiformis, UniProt P07374)
# T1 construct: purchased
# Assay: Headspace ammonia measurement over treated cat litter inoculated with synthetic urine and urease
# Type: biochemical
# Settings: headspace ammonia after 1 day; 100 g NATIONAL 12 Bentonite cat litter plus active, 10 mL inoculant (urea solution + urease); Sensidyne detector tubes
# Experimental: In a bottle add the following components: Urea (ACS Reagent Grade): 18.8 g, and 250 g of deionized water. The bottle is capped and mixed to dissolve urea. The pH of the solution is measured to confirm the pH is between 6.5 and 7.
# Immediately before use, mix 6.25 mL of Urease Enzyme from Canavalia ensiformis (Jack bean) in Glycerol (Type III, 500-800 units/mL) with the full volume of Synthetic Urine prepared above.
# Charge a plastic bag with 100 g of untreated NATIONAL™ 12 Bentonite (particle size approximately 1.6 mm) cat litter. Add the active component or mixture, as prepared in the Active Mixture Preparation section, to the bag containing the untreated litter. Seal the bag to prevent loss of material and mix by shaking for 30 seconds. Pour the mixture into a hexagonal plastic weighboat contained within a 1 gallon sealable plastic container having a lid with a hole covered with tape. […]
# Low (0.2-20 ppm) or high (5-260 ppm) range […] ® Ammonia Gas Detector Tubes are used to quantify the headspace ammonia concentration. The following procedure is used for ammonia detection and quantification in each test sample. […] Read the scale at the maximum point of the stained layer (yellow in color). Read and report the concentration immediately after measurement. If the reading is off scale, for example 20 ppm for the low range tubes, repeat the measurement using the high range gas detector tube. […]
# T1 sequence (P07374 whole entry, looked up): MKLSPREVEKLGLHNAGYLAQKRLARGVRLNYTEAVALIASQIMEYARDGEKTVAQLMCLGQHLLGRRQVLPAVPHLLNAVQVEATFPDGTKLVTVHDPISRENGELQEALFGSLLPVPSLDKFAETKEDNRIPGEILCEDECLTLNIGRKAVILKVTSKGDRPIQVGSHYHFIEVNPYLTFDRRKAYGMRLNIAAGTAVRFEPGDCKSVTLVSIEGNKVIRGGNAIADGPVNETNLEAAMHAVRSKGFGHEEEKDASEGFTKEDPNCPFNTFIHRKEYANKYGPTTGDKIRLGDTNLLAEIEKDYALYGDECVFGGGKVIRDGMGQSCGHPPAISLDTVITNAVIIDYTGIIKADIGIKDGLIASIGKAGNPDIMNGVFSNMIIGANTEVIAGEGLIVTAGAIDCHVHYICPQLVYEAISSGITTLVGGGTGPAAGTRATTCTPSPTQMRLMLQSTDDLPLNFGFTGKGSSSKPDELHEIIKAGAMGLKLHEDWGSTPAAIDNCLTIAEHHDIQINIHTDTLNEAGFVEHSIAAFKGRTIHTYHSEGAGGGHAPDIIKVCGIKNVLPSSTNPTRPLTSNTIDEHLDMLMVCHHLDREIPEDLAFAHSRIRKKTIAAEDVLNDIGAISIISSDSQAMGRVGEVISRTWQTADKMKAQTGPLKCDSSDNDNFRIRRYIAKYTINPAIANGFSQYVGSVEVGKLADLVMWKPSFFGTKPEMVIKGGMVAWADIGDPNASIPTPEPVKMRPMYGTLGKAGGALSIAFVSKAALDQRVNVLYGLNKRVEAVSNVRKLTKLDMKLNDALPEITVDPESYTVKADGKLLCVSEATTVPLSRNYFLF
row,SMILES,ppm Ammonia
1,"O=C(O)CC(O)(CC(=O)O)C(=O)O [Example 3, Citric Acid]",140 ppm
2,"O=C([O-])CN(CCN(CC(=O)[O-])CC(=O)O)CC(=O)O.[K+].[K+] [Example 2, K2EDTA]",190 ppm
